Consider 17 molecules from patent US8058243B2, “Method for treating a brain cancer with ifenprodil” (HSC Research and Development Limited Partnership, priority 2006, dated 2011).

The test concerns murine neural precursor cells (neurosphere cultures). Kind of test: HTS of LOPAC library against secondary neurosphere cultures, MTT proliferation assay at 3 μM, day 7 (z score, P value). The test is classed as cell-based, mouse. (Tetrazolium assays rely on reduction of a dye to a coloured formazan, in cell work by metabolically active cells.)
Where [1] appears, read: LOPAC library screen, 3 μM, MTT, secondary neurosphere cultures, day 7.
Setting [2] is: LOPAC primary screen, neurosphere MTT proliferation, 3 μM, day 7.
Setting [3] is: LOPAC screen, neurosphere MTT proliferation, 3 μM, day 7.
Setting [4] is: yes/no: significantly inhibited neurosphere proliferation (P<0.01) in primary screen.
[5] abbreviates: yes/no: significantly inhibited neurosphere proliferation in the primary screen.
The mark [6] stands for this setting: LOPAC library screen at 3 μM, MTT, secondary neurosphere cultures, screened in singlets.
Setting [7] is: yes/no: significantly inhibited neurosphere proliferation in primary screen.
[8] abbreviates: LOPAC library screen, 3 μM, MTT, neurosphere cultures.

Molecules are shown by their SMILES. Like-named read-outs stand apart in the source and are kept apart here.

Turning to `Cc1cn([C@H]2C[C@H](N=[N+]=[N-])[C@@H](CO)O2)c(=O)[nH]c1=O` [3′-Azido-3′-deoxythymidine], the Activity result was “yes”. Also, the “Z Score” value under setting [1] is given as −5.023. Also, the Z score under setting [2] is listed as −5.023.

Regarding `CCCN(CCC)C(=O)Cc1c(-c2ccc(Cl)cc2)nc2c(Cl)cc(Cl)cn12` [CB34], the “Z Score” value is recorded as −1.081. For the same molecule, the Z score under setting [3] is −1.081. Under setting [4], the Activity result was “no”.

For `N#CC(C#N)=C(N)/C(C#N)=C/c1cc(O)c(O)c(O)c1` [Tyrphostin 51], the “Z Score” value was −0.9177. The Z score (primary LOPAC screen, 3 μM, MTT, neurosphere proliferation) is on record as −0.918. Under setting [5], the Activity result is recorded as “no”.

Take `CO[C@@]1(NC(=O)CSCC#N)C(=O)N2C(C(=O)O)=C(CSc3nnnn3C)CS[C@@H]21` [Cefmetazole sodium]: under setting [6], the “Z Score” value was found to be 2.503. Under setting [3], this molecule gave a Z score of 2.503. Further, under setting [4], the Activity result is reported as “no”.

Regarding `CC(C(=O)O)c1ccc(CC2CCCC2=O)cc1` (centres unmarked) [loxoprofen], the “Z Score” value (LOPAC library screen at 3 μM, secondary neurosphere cultures, MTT) was −0.8833. Further, under setting [2], the Z score is given as −0.883. The Activity result under setting [4] is listed as “no”.

Take `CC(=O)OCC1=C(C(=O)[O-])N2C(=O)[C@@H](NC(=O)CCC[C@@H](N)C(=O)[O-])[C@H]2SC1.[Zn+2]` [Cephalosporin C zinc salt]: the “Z Score” value is given as −3.309. Also, under setting [2], the Z score was −3.309. In addition, the Activity result (yes/no: significantly inhibited neurosphere proliferation (P<0.01) in the primary screen) is on record as “yes”.

Consider `COc1cccc(OC)c1OCCNCC1COc2ccccc2O1.Cl` (centres unmarked) [WB-4101 hydrochloride], for which the “Z Score” value is −2.247. Further, the Z score under setting [3] was −2.247. Moreover, under setting [4], the Activity entry was “no”.

`CCN(CC)C(C)C(=O)N1c2ccccc2Sc2ccccc21.Cl` (stereo not drawn) [10-(alpha-Diethylaminopropionyl)-phenothiazine hydrochloride]: the “Z Score” value is recorded as −1.545.

For the molecule `COc1cc(CC(C)N)c(OC)cc1I.Cl` (racemic) [(±)-DOI hydrochloride], the Z score under setting [3] is on record as −1.345. Further, under setting [4], the Activity result is reported as “no”.

With `NS(=O)(=O)c1cc(C(=O)O)c(NCc2ccco2)cc1Cl` [Furosemide], the Activity entry is on record as “no”. Under setting [6], the “Z Score” value is 1.889. Under setting [2], this molecule gave a Z score of 1.889.

Consider `Cn1cnc2c1c(=O)[nH]c(=O)n2C` [Theobromine], for which, where the note is “168 h, 3 µM”, the “Z Score” value was −1.392 and the Z score was −1.392. Further, the Activity entry under setting [5] was “no”.

On to `Nc1nc(Cl)nc2c1ncn2[C@@H]1O[C@H](COP(=O)([O-])OP(=O)([O-])OP(=O)([O-])[O-])[C@@H](O)[C@H]1O.[Na+].[Na+].[Na+].[Na+]` [2-Chloroadenosine triphosphate tetrasodium], for which, for the setting “168 h, 3 µM”, the “Z Score” value turned out to be 1.149 and the Z score worked out at 1.149. Also, the Activity entry under setting [4] is listed as “no”.

Take `CCCN1CCOC2c3cc(O)ccc3OCC21.Cl` (racemic) [(±)-PD 128,907 hydrochloride]: under setting [2], the Z score is 1.164. Besides, the Activity entry under setting [7] is recorded as “no”.

Consider `O=C(O)CCc1nc(-c2ccccc2)c(-c2ccccc2)o1` [Oxaprozin], for which the “Z Score” value under setting [8] was 0.06616. The same molecule had a Z score under setting [2] of 0.066. Also, the Activity entry under setting [7] is “no”.

Consider `Nc1ccc(S(=O)(=O)Nc2ccnn2-c2ccccc2)cc1` [Sulfaphenazole], for which the “Z Score” value under setting [1] is given as −1.362. Also, the Z score under setting [2] is recorded as −1.362. Moreover, the Activity result under setting [7] was “no”.

As to `CC1CNCCN1S(=O)(=O)c1cccc2cnccc12.Cl.Cl` (centres unmarked) [1-(5-Isoquinolinylsulfonyl)-2-methylpiperazine dihydrochloride], for the setting “168 h, 3 µM”, the “Z Score” value is recorded as 0.3352 and the Z score came out at 0.335. Besides, the Activity entry under setting [4] was “no”.

Take `C[N+]1(CCCCC[N+]2(C)CCCC2)CCCC1.O=C([O-])C(O)C(O)C(=O)O.O=C([O-])C(O)C(O)C(=O)O` [Pentolinium di[L(+)-tartrate]]: the “Z Score” value under setting [8] is 0.1662. Under setting [2], the Z score is given as 0.166. The Activity entry under setting [7] is listed as “no”.
